Laboratory results reported in article PMC10610379, “Epidrugs as Promising Tools to Eliminate Plasmodium falciparum Artemisinin-Resistant and Quiescent Parasites” (Pharmaceutics, 2023).
Where “and” joins values, the source holds several entries; their conditions need not be identical. Equal entries are not always repeated. Where two headings read alike, the source gives them in different places.

Tests used:
[1] = tested on: Plasmodium falciparum F32-TEM (artemisinin-sensitive twin line); experiment: Standard chemosensitivity assay (SYBR Green I), F32-TEM; assay type: cell-based; conditions: read-out: Antiplasmodial Activity: IC50, F32-TEM
Experimental: (§1) They differ by eight mutations in seven genes (PF3D7_0110400, PF3D7_1343700, PF3D7_0213400, PF3D7_1115700, PF3D7_1302100, PF3D7_1459600, PF3D7_1464500) among them the M476I mutation on the kelch13 gene. F32-ART and F32-TEM strains have RSA^0–3 h values up to 12% and less than 0.1%, respectively. […] Both strains were cultured, in the same conditions, according to the Trager and Jensen protocol with modifications. Briefly, parasites were cultivated in RPMI-1640 medium (Biowest) at 2% hematocrit in human red blood cells and 5% human serum (EFS, French Blood Bank) under 5% CO2 in a humid atmosphere at 37 °C.
(§2) The antimalarial activities of the compounds were evaluated on both strains. […] Antimalarial activities were determined with the SYBR Green I method. Each drug concentration was tested in triplicate. The parasites were incubated with the drugs for 48 h. Plates were read on a BioTek FLX800 Microplate Fluorescence Reader (Bio-Tek instruments, Winooski, VT, USA) (λexcitation = 485 nm, λemission = 528 nm). Control parasite culture (i.e., RPMI with 0.5% DMSO) was referred to as 100% growth. IC50 and IC90 values were determined using GraphPad Prism version 7.05 (GraphPad Software, San Diego, CA, USA). Results were the mean of 3 independent experiments. When it is relevant, statistical significance between results obtained with both parasite strains was determined by a Mann–Whitney test using GraphPad Prism version 7.05.

H3K4me1 = experiment: Immunoblotting, histone mark abundance in F32-ART parasites; assay type: cell-based, Plasmodium falciparum; conditions: 90nM
Experimental: (§3) Abundance of methylated and acetylated histone was determined in parasite cultures in different conditions: “not-treated”, “DHA 24 h”, “DHA 6 h/DHA 24 h” and “DHA 6 h/DHA + compound to be tested 24 h”. At the end of the treatments, parasite cultures were washed in RPMI-1640 and then twice in PBS 1× before red blood cell lysis with 0.075% saponin (Sigma-Aldrich) in PBS. Parasite ghosts were washed 3 times in PBS before incubating the ghosts with E1A lysis buffer (50 mM Hepes pH 7.5; 250 mM NaCl; 5 mM EDTA; 0.1% Triton X-100, 1 mM DTT, 0.2 mM PMSF supplemented with complete Mini EDTA-free protease inhibitor cocktail (Roche®, Basel, Switzerland)) for 15 min. Ghosts were then sonicated for 3 × 15s ON/OFF cycles to shear parasite membranes. Debris were pelleted by centrifuging for 15 min at 13,800× g and 4 °C, and supernatants (containing parasitic proteins) were then collected. Protein concentrations were determined using BCA assay (Bio-Rad, Hercules, CA, USA) according to the manufacturer’s instructions. For each sample, 10 µg of proteins were mixed with 4× sample buffer (10 mL 50% Glycerol, 5 mL 0.5 M Tris HCl pH 6.8, 4 mL 20% SDS, 0.02% Bromophenol blue for a total solution volume of 20 mL) and 100 mM DTT and then separated on 15% SDS-PAGE gels in Laemmli running buffer. Gels were then wet-transferred O/N at 20 V onto PVDF membranes. Membranes were blocked in TBST for 1 h at room temperature. Bottom parts were then probed with histone antibodies while upper parts were probed with PFALDOLASE antibody (Abcam, ab38905, Cambridge, UK) at 1:20,000 dilution. The following primary antibodies were used: anti-H3K4me1 (Abcam, ab8895); anti-H3K4me2 (Abcam, ab35356); anti-H3K9me2 (Abcam, ab1220); anti-H3K9me3 (Millipore, 07-442, Burlington, MA, USA); anti-tetra-acetyl H4 (Millipore, 06-866); anti-H4K8Ac (Millipore, 07-328); anti-H4K20me3 (Abcam, ab9053); anti-H3K4me3 (Diagenode) and anti-H3K9Ac (Millipore, 07-352) at 1:10,000. The following secondary antibodies were used: anti-rabbit IgG-Peroxidase produced in goat (Sigma-Aldrich) or anti-mouse IgG-Peroxidase (Sigma-Aldrich); at 1:20,000 dilutions. Blots were developed using ECL Prime Western Blotting (GE Healthcare, Chicago, IL, USA) and read on a Chemidoc touch imaging software. Densitometry analysis was performed by using ImageLab software from Bio-Rad. To determine if variations in histone abundances were statistically significant, immunoblotting experiments were performed on 3 biological replicates and each run was performed twice.

H3K4me2 = experiment: as above; assay type: cell-based, Plasmodium falciparum; conditions: 90nM
Experimental: as §3

H3K4me3 = experiment: as above; assay type: cell-based, Plasmodium falciparum; conditions: 90nM
Experimental: as §3

H4K20me3 = experiment: as above; assay type: cell-based, Plasmodium falciparum; conditions: 90nM
Experimental: as §3

[2] = tested on: ART-resistant parasites F32-ART at the quiescent stage; experiment: Quiescent-stage Survival Assay (QSA), 48-h exposure; assay type: cell-based, Plasmodium falciparum
Experimental: The sensitivity of the ART-resistant parasites F32-ART at the quiescent stage towards the different molecules was determined using the QSA (Quiescent-stage Survival Assay), as previously described.
Epidrugs were tested at their IC90 values. In the present study, quiescence was induced using 3 µM of ART or 700 nM of DHA [28]. Thus, D-sorbitol synchronized ring-stage parasites at 3% parasitemia and 2% hematocrit (5 mL of culture per well in 6-well plates) were first exposed to 6 h of ART or DHA to induce quiescence and then to 48 h of the combination “ART or DHA + compound to be tested”. The combinations “ART 6 h/ART 48 h” or “DHA 6 h/DHA 48 h” were used as controls. The compounds were evaluated, in parallel, on proliferating parasites, i.e., without any pre-treatment. After drug exposure, parasite cultures were washed with 40 mL of RPMI-1640 medium and cultured in drug-free conditions supplemented with 10% human serum in new wells. The parasitemia for each condition was then microscopically monitored every 2 days. Culture media were renewed twice a week and 25 µL of fresh red blood cells were added once a week. Obtained data were used to perform Kaplan–Meier survival analyses considering censored data. The outcome was defined as the day when parasite cultures reached the initial parasitemia (3%) and data were considered as censored if no parasite recrudescence was observed during the 30-day experiment timeframe. When relevant, statistical significance between results obtained for the conditions “ART/ART” and “ART/ART + compound to be tested” or “DHA/DHA” and “DHA/DHA + compound to be tested” was determined by a Log Rank (Mantel Cox) test using GraphPad Prism version 7.05. For the best compounds targeting histones, in order to compare western blots data, modified QSAs were carried out by comparing “DHA 6 h/DHA 24 h” versus “DHA 6 h/DHA + compound to be tested 24 h”.

HFF = conditions: read-out: Cytotoxicity: CC50 (HFF), data from literature ref 48; cited from earlier work
[3] = tested on: Plasmodium falciparum F32-ART (artemisinin-resistant strain); experiment: Standard chemosensitivity assay (SYBR Green I), F32-ART; assay type: cell-based; conditions: for IC50: read-out: Antiplasmodial Activity: IC50, F32-ART; for Selectivity Index CC50/IC50: ratio cytotoxicity (mammalian cell type of the CC50)/antiplasmodial activity on F32-ART
Experimental: as §1, §2

MCF7 = conditions: cited from earlier work
[4] = Plasmodium falciparum, F32, 48 h
[5] = 24 h, F32-ART ring stage proliferating, 3 replicates (Fig 3B)
[6] = DHA 6 h/DHA + BIX-01294 24 h, F32-ART DHA-treated parasites, 3 replicates (Fig 3F)

Row | SMILES | IC50 [1, 4] [nM] | Fold change of H3K4me1 abundance, BIX-01294 vs DMSO (H3K4me1; [5]) | Fold change of H3K4me1 abundance, BIX-01294, quiescent stage (H3K4me1; [6]) | Fold change of H3K4me2 abundance, BIX-01294 vs DMSO (H3K4me2; [5]) | Fold change of H3K4me2 abundance, BIX-01294, quiescent stage (H3K4me2; [6]) | Fold change of H3K4me3 abundance, BIX-01294 vs DMSO (H3K4me3; [5]) | Fold change of H3K4me3 abundance, BIX-01294, quiescent stage (H3K4me3; [6]) | Fold change of H4K20me3 abundance, BIX-01294 vs DMSO (H4K20me3; [5]) | Fold change of H4K20me3 abundance, BIX-01294, quiescent stage (H4K20me3; [6]) | Delay in parasite recrudescence time (difference between median recrudescence times), ART/ART + compound vs ART/ART ([2]; quiescence induced with ART 3 µM 6 h, then 48 h ART + compound at its IC90) [days] | Delay in recrudescence time, DHA/DHA + compound vs DHA/DHA ([2]; quiescence induced with DHA 700 nM 6 h, then 48 h DHA + compound at its IC90) | CC50 (HFF) [nM] | IC50 [3, 4] [nM] | Selectivity Index CC50/IC50 [3] | IC50 ([1]; F32-TEM, 48 h incubation, SYBR Green I, mean ± SEM of 3 experiments (* mean of 2)) [nM] | CC50 (MCF7; MCF7 cancer, data from literature ref 42, read-out: Cytotoxicity: CC50 (MCF7 cancer)) [nM] | IC50 ([3]; F32-ART, 48 h incubation, SYBR Green I, mean ± SEM of 3 experiments (* mean of 2)) [nM] | IC50 ([1]; Plasmodium falciparum, F32-TEM, 48 h incubation, SYBR Green I, mean ± SEM of 3 experiments (* mean of 2)) [nM] | CC50 (MCF7; MCF7, data from literature ref 45, read-out: Cytotoxicity: CC50 (MCF7)) [nM] | IC50 ([3]; Plasmodium falciparum, F32-ART, 48 h incubation, SYBR Green I, mean ± SEM of 3 experiments (* mean of 2)) [nM]
1 | COc1cc2nc(N3CCCN(C)CC3)nc(NC3CCN(Cc4ccccc4)CC3)c2cc1OC [BIX-01294] | 55 ± 14 | significantly decreased level and 0.58 and 0.68 and 0.70 | did not induce a quantifiable change and 1.47 and 1.13 and 0.70 | significantly decreased level and 0.66 and 0.68 and 0.73 | did not induce a quantifiable change and 1.57 and 0.88 and 0.79 | significantly decreased level and 0.89 and 0.88 and 0.80 | did not induce a quantifiable change and 1.11 and 1.28 and 0.96 | significantly decreased level and 0.69 and 0.64 and 0.72 | did not induce a quantifiable change and 0.66 and 1.37 and 0.84 | 8.5 | slightly shorter delay | 6100 | 56 ± 8 | 110 | – | – | – | – | – | –
2 | O=C(CCCCCCC(=O)N[c-]1cccc1)NO.[Fe+2].c1cc[cH-]c1 [JAHA] | – | – | – | – | – | – | – | – | – | – | – | – | – | – | 690 ± 80 | 2400 | 460 ± 30 | – | – | –
3 | COc1ccc(CN2CCc3ccc(C(=O)NO)cc32)cc1 [PCI 34051] | – | – | – | – | – | – | – | – | – | – | – | – | – | >2.5 | – | – | – | 9000 | > 20000 | 8000
